Where “and” joins values, the source holds several entries; their conditions need not be identical. Identical values can stand only once. Like-named read-outs stand apart in the source and are kept apart here.

The target of one assay is hH4R (Homo sapiens, UniProt Q9H3N8). The experiment in a line: Radioligand competition binding with [3H]histamine, Sf9 cell membranes.
In a further assay the target is hH3R (Homo sapiens, UniProt Q9Y5N1). Kind of assay: Radioligand competition binding with [3H]Nα-methylhistamine, Sf9 cell membranes.
The target in another assay is hH2R (Homo sapiens, UniProt P25021). The assay is classed as binding.
A further assay deals with hH1R (Homo sapiens, UniProt P35367). Kind of assay: biochemical. The assay is classed as binding.
In another assay the target is gpH1R (Cavia porcellus, UniProt P31389). The experiment in a line: Histamine H1 receptor assay on isolated guinea pig ileum.
The target of another assay is gpH2R (Cavia porcellus, UniProt P47747). Also on record: species or system guinea pig.
Where [1] appears, read: hH3R pKi, [3H]Nα-methylhistamine (Kd 8.6 nM, c = 3 nM), mean ± SEM.
Setting [2] is: hH2R pKi, [3H]tiotidine (Kd […], c = 10 nM), mean ± SEM.
Where [3] appears, read: hH1R pKi, [3H]mepyramine (Kd 4.5 nM, c = 5 nM), mean ± SEM.

Chain of hH1R (P35367 whole entry): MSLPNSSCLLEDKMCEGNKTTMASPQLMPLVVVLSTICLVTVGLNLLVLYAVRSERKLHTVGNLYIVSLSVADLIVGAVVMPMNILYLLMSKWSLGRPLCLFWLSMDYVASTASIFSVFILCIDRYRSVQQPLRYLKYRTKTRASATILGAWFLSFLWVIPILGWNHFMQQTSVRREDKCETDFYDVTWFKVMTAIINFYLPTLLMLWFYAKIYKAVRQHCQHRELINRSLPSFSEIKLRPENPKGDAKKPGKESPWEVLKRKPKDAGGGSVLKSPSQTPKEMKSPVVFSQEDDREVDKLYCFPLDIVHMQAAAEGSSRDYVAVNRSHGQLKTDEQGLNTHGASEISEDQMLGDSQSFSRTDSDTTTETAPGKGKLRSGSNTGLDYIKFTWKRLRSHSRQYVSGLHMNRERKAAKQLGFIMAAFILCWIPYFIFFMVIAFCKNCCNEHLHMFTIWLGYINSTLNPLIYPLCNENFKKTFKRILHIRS
Chain of gpH2R (P47747 whole entry): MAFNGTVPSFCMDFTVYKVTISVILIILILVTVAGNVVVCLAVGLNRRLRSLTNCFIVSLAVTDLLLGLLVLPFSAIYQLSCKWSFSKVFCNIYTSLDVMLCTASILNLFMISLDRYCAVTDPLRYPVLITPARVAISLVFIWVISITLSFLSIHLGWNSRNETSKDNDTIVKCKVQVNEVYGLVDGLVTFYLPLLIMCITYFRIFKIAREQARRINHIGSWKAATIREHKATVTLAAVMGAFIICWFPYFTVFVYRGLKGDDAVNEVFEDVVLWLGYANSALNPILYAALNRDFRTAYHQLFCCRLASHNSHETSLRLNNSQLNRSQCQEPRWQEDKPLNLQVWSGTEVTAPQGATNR
Chain of hH4R (Q9H3N8 whole entry): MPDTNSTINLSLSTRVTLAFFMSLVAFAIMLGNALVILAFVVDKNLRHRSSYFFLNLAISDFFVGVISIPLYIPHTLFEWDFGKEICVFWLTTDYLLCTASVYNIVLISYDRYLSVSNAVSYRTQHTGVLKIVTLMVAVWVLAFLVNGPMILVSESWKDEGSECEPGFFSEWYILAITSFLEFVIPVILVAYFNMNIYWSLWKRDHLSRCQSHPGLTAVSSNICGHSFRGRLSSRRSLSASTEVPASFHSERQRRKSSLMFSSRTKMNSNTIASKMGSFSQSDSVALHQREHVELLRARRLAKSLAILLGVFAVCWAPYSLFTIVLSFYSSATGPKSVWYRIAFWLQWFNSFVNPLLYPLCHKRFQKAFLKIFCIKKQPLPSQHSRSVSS
Chain of hH2R (P25021 whole entry): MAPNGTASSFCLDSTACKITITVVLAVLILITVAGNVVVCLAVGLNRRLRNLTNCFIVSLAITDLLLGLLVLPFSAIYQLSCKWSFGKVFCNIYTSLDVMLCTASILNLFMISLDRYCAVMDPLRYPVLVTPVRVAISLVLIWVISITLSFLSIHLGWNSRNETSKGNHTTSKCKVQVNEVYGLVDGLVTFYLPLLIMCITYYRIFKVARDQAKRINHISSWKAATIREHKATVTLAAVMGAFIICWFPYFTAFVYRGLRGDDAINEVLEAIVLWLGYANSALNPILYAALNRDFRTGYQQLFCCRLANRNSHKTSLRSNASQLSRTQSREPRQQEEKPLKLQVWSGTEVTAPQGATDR
Chain of hH2R (P63092 1-380 isoform P63092-2 partner): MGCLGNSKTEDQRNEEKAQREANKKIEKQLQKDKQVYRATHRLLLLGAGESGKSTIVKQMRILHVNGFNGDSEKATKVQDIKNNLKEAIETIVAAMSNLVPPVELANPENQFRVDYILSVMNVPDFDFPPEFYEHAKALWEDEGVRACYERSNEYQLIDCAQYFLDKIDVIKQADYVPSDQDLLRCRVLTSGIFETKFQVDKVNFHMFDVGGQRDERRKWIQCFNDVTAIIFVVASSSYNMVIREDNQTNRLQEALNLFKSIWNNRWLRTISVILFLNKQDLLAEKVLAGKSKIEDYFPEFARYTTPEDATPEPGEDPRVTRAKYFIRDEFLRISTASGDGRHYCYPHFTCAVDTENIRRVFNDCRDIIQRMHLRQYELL
Chain of hH3R (Q9Y5N1 whole entry): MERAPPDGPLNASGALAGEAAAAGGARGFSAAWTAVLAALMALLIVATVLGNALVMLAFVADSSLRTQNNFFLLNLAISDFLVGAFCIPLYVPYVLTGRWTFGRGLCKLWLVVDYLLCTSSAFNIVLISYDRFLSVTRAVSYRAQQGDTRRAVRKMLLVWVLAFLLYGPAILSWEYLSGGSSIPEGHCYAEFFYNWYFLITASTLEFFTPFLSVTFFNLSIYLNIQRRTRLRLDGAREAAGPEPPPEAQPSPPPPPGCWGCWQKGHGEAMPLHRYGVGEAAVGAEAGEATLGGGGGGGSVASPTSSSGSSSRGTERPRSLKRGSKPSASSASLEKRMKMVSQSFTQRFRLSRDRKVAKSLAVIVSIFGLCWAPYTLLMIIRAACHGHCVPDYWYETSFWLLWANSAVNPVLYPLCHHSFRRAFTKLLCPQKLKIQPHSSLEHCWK
Chain of gpH1R (P31389 whole entry): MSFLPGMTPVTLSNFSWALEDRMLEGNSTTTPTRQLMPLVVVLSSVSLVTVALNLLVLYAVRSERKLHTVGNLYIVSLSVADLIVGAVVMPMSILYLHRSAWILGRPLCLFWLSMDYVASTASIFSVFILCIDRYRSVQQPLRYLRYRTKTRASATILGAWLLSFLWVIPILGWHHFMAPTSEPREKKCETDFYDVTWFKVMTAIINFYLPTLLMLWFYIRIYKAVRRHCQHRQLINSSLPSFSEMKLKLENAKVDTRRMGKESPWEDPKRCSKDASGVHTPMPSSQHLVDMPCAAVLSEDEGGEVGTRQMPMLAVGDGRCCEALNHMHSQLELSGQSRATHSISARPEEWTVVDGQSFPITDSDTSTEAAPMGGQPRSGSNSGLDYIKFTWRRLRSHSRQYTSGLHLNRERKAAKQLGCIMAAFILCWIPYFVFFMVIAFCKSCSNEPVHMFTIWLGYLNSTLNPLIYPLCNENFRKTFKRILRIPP

On to `N=C(NCCCNC(=N)NCCCc1c[nH]cn1)NCCCc1c[nH]cn1` [Compound 53], for which the Ki was 0.2 µM at hH4R (hH4R pKi), 0.112 µM at hH3R (setting [1]), 0.174 µM at hH2R (setting [2]) and more than 10 µM at hH1R (hH1R pKi). On gpH1R, this molecule gave a Kb of 0.631 µM. Moreover, a half-maximal effect on gpH2R (EC50) was put at 0.049 µM. For the same molecule, the “gpH2R Emax” value at gpH2R is 0.96 and 0.96 ± 0.01.

As for `N=C(NCCCCNC(=N)NCCCc1c[nH]cn1)NCCCc1c[nH]cn1` [Compound 54], the Ki on hH4R (hH4R pKi) was 0.661 µM; at hH3R (setting [1]) it was 0.145 µM; on hH2R (setting [2]) it was 0.407 µM; on hH1R (hH1R pKi), more than 10 µM. At gpH1R, this molecule had a Kb of 1.29 µM. The molecule further had an EC50 at gpH2R of 0.038 µM. The “gpH2R Emax” value at gpH2R was determined as 0.94 ± 0.01.

On to `N=C(NCCCCCCNC(=N)NCCCc1c[nH]cn1)NCCCc1c[nH]cn1` [Compound 55], for which the Ki was 0.427 µM at hH4R (hH4R pKi), 0.0525 µM at hH3R (setting [1]), 0.151 µM on hH2R (setting [2]) and more than 3.16 µM on hH1R (hH1R pKi). Further, at gpH1R, the Kb was 2.04 µM. The molecule also showed an EC50 at gpH2R of 0.0166 µM. For the same molecule, the “gpH2R Emax” value at gpH2R came to 0.90 ± 0.04.

For the molecule `N=C(NCCCCCCCCCCNC(=N)NCCCc1c[nH]cn1)NCCCc1c[nH]cn1` [Compound 56], the Ki on hH4R (hH4R pKi) is 0.0209 µM; at hH3R (setting [1]), 0.0191 µM; at hH2R (setting [2]) it was 0.0339 µM; at hH1R (hH1R pKi) it was 1.26 µM. This molecule also showed a Kb at gpH1R of 0.229 µM. On gpH2R, this molecule had an EC50 of 0.0251 µM. Further, on gpH2R, the “gpH2R Emax” value is given as 0.71 ± 0.04.

For `N=C(NCCCCCCCCNC(=N)NCCCn1ccnc1)NCCCn1ccnc1` [Compound 60], the Ki is 33.9 µM on hH4R (hH4R pKi), 2.75 µM on hH3R (setting [1]), 4.47 µM at hH2R (setting [2]) and more than 10 µM on hH1R (hH1R pKi). This molecule showed a Kb at gpH1R of 4.27 µM. This molecule had an EC50 on gpH2R of 4.9 µM. Besides, the “gpH2R Emax” value on gpH2R was 0.20 and 0.20 ± 0.02.

In the case of `CNC(=N)NCCCc1c[nH]cn1` [Compound 127], the Ki at hH4R (hH4R pKi) was 0.0263 µM; at hH3R (setting [1]), 0.155 µM; at hH2R (setting [2]) it was 2.75 µM; on hH1R (setting [3]), more than 31.6 µM. In addition, at gpH1R, the Kb is 58.9 µM. In addition, the EC50 on gpH2R was 7.94 µM. At gpH2R, the “gpH2R Emax” value is recorded as 0.58 ± 0.07.

In the case of `CCNC(=N)NCCCc1c[nH]cn1` [Compound 128], the Ki is 0.0135 µM on hH4R (hH4R pKi), 0.0933 µM on hH3R (setting [1]), 4.9 µM at hH2R (setting [2]) and more than 31.6 µM on hH1R (setting [3]). The same molecule gave a Kb at gpH1R of 8.32 µM. In addition, at gpH2R, a half-maximal response (EC50) required 7.24 µM. The “gpH2R Emax” value at gpH2R turned out to be 0.55 ± 0.07.

With `CCCNC(=N)NCCCc1c[nH]cn1` [Compound 129, 1-[3-(1H-Imidazol-4-yl)propyl]-3-propylguanidine], the Ki at hH4R (Ki hH4R, bound stated) is less than 0.1 µM; on hH3R (Ki hH3R, bound stated) it was less than 0.1 µM; at hH2R (Ki hH2R, bound stated) it was more than 1 µM; on hH2R (setting [2]) it was 3.02 µM; on hH1R (Ki hH1R, bound stated), more than 1 µM; at hH1R (setting [3]) it was more than 31.6 µM. In addition, the “gpH2R Emax” value at gpH2R turned out to be 0.83 ± 0.03.

Consider `CC(C)NC(=N)NCCCc1c[nH]cn1` [Compound 130], for which the Ki on hH4R (hH4R pKi) was 0.038 µM; at hH3R (setting [1]) it was 0.0912 µM; at hH2R (setting [2]), 4.17 µM; at hH1R (hH1R pKi), more than 10 µM. This molecule showed a Kb on gpH1R of 5.37 µM. The molecule further gave an EC50 on gpH2R of 1.55 µM. The “gpH2R Emax” value at gpH2R was found to be 0.87 ± 0.04.

Regarding `CCCCNC(=N)NCCCc1c[nH]cn1` [Compound 131], the Ki at hH4R (hH4R pKi) was 0.00912 µM; on hH3R (setting [1]), 0.0617 µM; at hH2R (setting [2]) it was 0.776 µM; on hH1R (hH1R pKi), more than 10 µM. The same molecule gave a Kb at gpH1R of 4.07 µM. Further, the response on gpH2R was half-maximal at 0.832 µM (EC50). The “gpH2R Emax” value on gpH2R was found to be 0.86 ± 0.04.

As to `CC(C)CNC(=N)NCCCc1c[nH]cn1` [Compound 132], the Ki at hH4R (hH4R pKi) is 0.0178 µM; on hH3R (setting [1]), 0.0661 µM; on hH2R (setting [2]), 0.759 µM; on hH1R (setting [3]), more than 31.6 µM. The Kb at gpH1R is 10.2 µM. Besides, the EC50 at gpH2R was 1.35 µM. For the same molecule, the “gpH2R Emax” value on gpH2R is given as 0.86 ± 0.08.

Take `CC(C)(C)NC(=N)NCCCc1c[nH]cn1` [Compound 133]: the Ki at hH4R (hH4R pKi) is 0.219 µM; on hH3R (setting [1]) it was 0.372 µM; at hH2R (setting [2]), 2.51 µM; at hH1R (hH1R pKi), more than 100 µM. At gpH2R, this molecule showed an EC50 of 15.1 µM. Moreover, the “gpH2R Emax” value on gpH2R was 0.92 ± 0.03.

In the case of `CCCCCNC(=N)NCCCc1c[nH]cn1` [Compound 134], the Ki is 0.00676 µM on hH4R (hH4R pKi), 0.0912 µM at hH3R (setting [1]), 0.933 µM at hH2R (setting [2]) and more than 10 µM at hH1R (hH1R pKi). The same molecule showed a Kb on gpH1R of 4.47 µM. For the same molecule, the response at gpH2R was half-maximal at 0.363 µM (EC50). For the same molecule, at gpH2R, the “gpH2R Emax” value stood at 0.90 ± 0.02.

In the case of `CC(C)CCNC(=N)NCCCc1c[nH]cn1` [Compound 135], the Ki was 0.0251 µM at hH4R (hH4R pKi), 0.115 µM on hH3R (setting [1]), 0.794 µM on hH2R (setting [2]) and more than 10 µM at hH1R (hH1R pKi). Further, the Kb at gpH1R was 7.24 µM. Further, on gpH2R, a half-maximal response (EC50) required 0.24 µM. For the same molecule, the “gpH2R Emax” value at gpH2R stood at 0.89 ± 0.05.

Take `CCCCCCCCCCNC(=N)NCCCc1c[nH]cn1` [Compound 137]: the Ki at hH4R (hH4R pKi) is 0.0977 µM; at hH3R (setting [1]), 0.0316 µM; at hH2R (setting [2]), 0.141 µM; on hH1R (hH1R pKi), 2 µM. On gpH1R, this molecule had a Kb of 0.182 µM. Further, the “gpH1R pA2” value on gpH1R (guinea pig ileum, antagonism of histamine-induced contraction) amounted to 6.74. On gpH2R, this molecule had a concentration for a half-maximal effect (EC50) of 0.295 µM. In addition, the “gpH2R Emax” value on gpH2R came to 0.90 ± 0.03.

For `CCCCCCCCCCCCNC(=N)NCCCc1c[nH]cn1` [Compound 138], the Ki on hH4R (hH4R pKi) is 0.0126 µM; on hH3R (setting [1]), 0.0295 µM; at hH2R (setting [2]) it was 0.603 µM; at hH1R (hH1R pKi), 2.95 µM. At gpH1R, the Kb is 0.195 µM. The EC50 on gpH2R is 0.234 µM. Further, the “gpH2R Emax” value on gpH2R was 0.91 and 0.91 ± 0.03.

For the molecule `CCCCCCCCCCCCNC(=N)NCCCc1cnc(N)s1` [Compound 140], the Ki is 11.2 µM on hH4R (hH4R pKi), 14.1 µM at hH3R (setting [1]), 0.269 µM on hH2R (setting [2]) and more than 3.16 µM on hH1R (hH1R pKi). The same molecule gave a Kb on gpH1R of 0.372 µM. Further, the response at gpH2R was half-maximal at 0.562 µM (EC50). In addition, the “gpH2R Emax” value at gpH2R came to 0.70 ± 0.01.

`CCCCCCCCCCCCNC(=N)NCCCn1ccnc1` [Compound 141]: the Ki was 12.9 µM on hH4R (hH4R pKi), 6.46 µM at hH3R (setting [1]), 1.26 µM on hH2R (setting [2]) and more than 3.16 µM on hH1R (hH1R pKi). Further, at gpH1R, the Kb is 0.372 µM. For the same molecule, the “gpH2R Emax” value at gpH2R worked out at 0. Further, the “gpH2R pEC50” value on gpH2R is given as “not active”.

On to `c1nc(CCCNC2=NCCCN2)c[nH]1` [Compound 145, N-[3-(1H-imidazol-4-yl)propyl]-1,4,5,6-tetrahydropyrimidin-2-amine], for which the Ki at hH4R (hH4R pKi) is 0.038 µM; at hH3R (hH3R pKi), 0.186 µM; on hH2R (setting [2]), 3.16 µM; at hH1R (hH1R pKi) it was more than 10 µM. On gpH1R, this molecule gave a Kb of 5.75 µM. The molecule further showed an EC50 on gpH2R of 1.51 µM. In addition, on gpH2R (guinea pig right atrium, relative to maximal increase in heart rate induced by histamine (Emax = 1.00)), the “gpH2R Emax” value is reported as 1.00 ± 0.03.

As to `CNCCc1cnc[nH]1` [[^3H]N^α-methylhistamine, reference compound], the Kd at hH3R (read-out: Kd of radioligand at hH3R, Sf9 membranes) was 0.0086 µM.
